From patent publication US20120022164A1, “EXTERNAL PREPARATION COMPRISING PROSTAGLANDIN DERIVATIVE” (TAISHO PHARMACEUTICAL CO., LTD., priority 2006, published 2012)
Like-named read-outs stand apart in the source and are kept apart here. One block for each compound: values may come before it.

Key:
Solubility in water = type: physicochemical; details: water at 25° C.
[1] = Solubility of compound of formula II in cyclodextrin aqueous solutions (Test Example 7); type: physicochemical; details: for solubility at 24 h: 25 °C, aqueous with cosolvent or surfactant or cyclodextrin, thermodynamic from solid
Description: A complex containing the compound of formula II and the cyclodextrin can be obtained by grinding a block prepared by freeze-drying a solution which is obtained by dissolving the both into water. In order to examine the minimum content (formulation amount) of cyclodextrin required to obtain the complex, solubility of the compound of formula II in cyclodextrin aqueous solutions which have different concentrations of and different types of cyclodextrin was measured. That is, cyclodextrin aqueous solutions of various concentrations were prepared by dissolving α-cyclodextrin, β-cyclodextrin, γ-cyclodextrin or hydroxypropyl-β-cyclodextrin into water. After each solution was poured into a test tube, the compound of formula II was added excessively. The test tube was shaken in a water bath at 25° C. for 24 hours, and a concentration of the dissolved compound of formula II was quantified with high-performance liquid chromatography (Equipment: LC10VP series manufactured by SHIMADZU CORPORATION, Column: Develosil ODS-HG-5 manufactured by Nomura Chemical Co., Ltd., Inner diameter: 4.6 mm, Length: 15 cm, Column temperature: 40° C., Mobile phase: mixed solution of water/acetonitrile/phosphoric acid (550:450:1), Flow rate: 1 mL/min, Detection wavelength: 200 nm). With this, solubility of the compound of formula II and molar ratio of the compound of formula II and each type of cyclodextrin were calculated.
Note that, for calculation of the molar ratios, molecular weights of the compound of formula II, α-cyclodextrin, β-cyclodextrin, γ-cyclodextrin and hydroxypropyl-β-cyclodextrin were set to 420.99, 972.84, 1134.98, 1297.12 and 1506.69, respectively.

[2] = cited from earlier work; for Solubility in water: cyclodextrins, water at 25° C.

solubility (Solubility in water): ~60 µg/mL | Solubility of compound of formula II (mg/mL) ([1]; hydroxypropyl-β-cyclodextrin 0.25% by mass in water, 25° C., * completely dissolved, actual solubility assumed much higher): > 0.10* mg/mL | Solubility of compound of formula II (mg/mL) ([1]; hydroxypropyl-β-cyclodextrin 5% by mass in water, 25° C., * completely dissolved, actual solubility assumed much higher): > 2.0* mg/mL | Solubility of compound of formula II (mg/mL) ([1]; hydroxypropyl-β-cyclodextrin 10% by mass in water, 25° C., * completely dissolved, actual solubility assumed much higher): > 3.0* mg/mL | solubility at 24 h ([1]; α-cyclodextrin aqueous solution, α-cyclodextrin 1% by mass in water, 25° C., 24 hours, read-out: Solubility of compound of formula II): 110 µg/mL | solubility at 24 h ([1]; α-cyclodextrin aqueous solution, α-cyclodextrin 2% by mass in water, 25° C., 24 hours, read-out: Solubility of compound of formula II): 170 µg/mL | solubility at 24 h ([1]; α-cyclodextrin aqueous solution, α-cyclodextrin 5% by mass in water, 25° C., 24 hours, read-out: Solubility of compound of formula II): 500 µg/mL | solubility at 24 h ([1]; α-cyclodextrin aqueous solution, α-cyclodextrin 10% by mass in water, 25° C., 24 hours, read-out: Solubility of compound of formula II): 1220 µg/mL | solubility at 24 h ([1]; α-cyclodextrin aqueous solution, α-cyclodextrin 12% by mass in aqueous solution, 25° C. (FIG. 1), read-out: Solubility of the compound of formula II): 1520 µg/mL | solubility at 24 h ([1]; β-cyclodextrin aqueous solution, β-cyclodextrin 1% by mass in water, 25° C., 24 hours, read-out: Solubility of compound of formula II): < 100 µg/mL | solubility at 24 h ([1]; β-cyclodextrin aqueous solution, β-cyclodextrin 2% by mass in water, 25° C., * completely dissolved, actual solubility assumed much higher, read-out: Solubility of compound of formula II): > 200 µg/mL | Compound of formula II: cyclodextrin (molar ratio) ([1]; γ-cyclodextrin 5% by mass): 0.1396 | solubility at 24 h ([1]; γ-cyclodextrin aqueous solution, γ-cyclodextrin 0.1% by mass in water, 25° C., * completely dissolved, actual solubility assumed much higher, read-out: Solubility of compound of formula II): > 50 µg/mL | solubility at 24 h ([1]; γ-cyclodextrin aqueous solution, γ-cyclodextrin 1% by mass in water, 25° C., 24 hours, read-out: Solubility of compound of formula II): 170 µg/mL | solubility at 24 h ([1]; γ-cyclodextrin aqueous solution, γ-cyclodextrin 5% by mass in water, 25° C., 24 hours, read-out: Solubility of compound of formula II): 120 µg/mL
Compound: O=C(O)CSCCCC[C@@H]1[C@@H](C#C[C@@H](O)C2CCCCC2)[C@H](O)C[C@H]1Cl [compound of formula II]

Compound: OC[C@H]1O[C@@H]2O[C@H]3[C@H](O)[C@@H](O)[C@@H](O[C@H]4[C@H](O)[C@@H](O)[C@@H](O[C@H]5[C@H](O)[C@@H](O)[C@@H](O[C@H]6[C@H](O)[C@@H](O)[C@@H](O[C@H]7[C@H](O)[C@@H](O)[C@@H](O[C@H]1[C@H](O)[C@H]2O)O[C@@H]7CO)O[C@@H]6CO)O[C@@H]5CO)O[C@@H]4CO)O[C@@H]3CO [α-cyclodextrin]
Solubility in water [2]: approximately 14% | Solubility of α-cyclodextrin in water ([2]; water): approximately 14 % by mass

Compound: OC[C@H]1O[C@@H]2O[C@H]3[C@H](O)[C@@H](O)[C@@H](O[C@H]4[C@H](O)[C@@H](O)[C@@H](O[C@H]5[C@H](O)[C@@H](O)[C@@H](O[C@H]6[C@H](O)[C@@H](O)[C@@H](O[C@H]7[C@H](O)[C@@H](O)[C@@H](O[C@H]8[C@H](O)[C@@H](O)[C@@H](O[C@H]1[C@H](O)[C@H]2O)O[C@@H]8CO)O[C@@H]7CO)O[C@@H]6CO)O[C@@H]5CO)O[C@@H]4CO)O[C@@H]3CO [β-cyclodextrin]
Solubility in water [2]: approximately 2%

Compound: hydroxypropyl-β-cyclodextrin
Solubility in water [2]: approximately 22%
